Read-outs that look alike come from different tables or passages of the source.

For this experiment, the system named is Staphylococcus aureus strain FRI-1169. As to the kind of experiment: microbe, parasite or virus in culture. As to conditions: for inhibition at 1 % / inhibition at 0.1 % / inhibition at 0.5 % / inhibition at 10 %: Staphylococcus aureus; for inhibition at 0.1 %: FRI1169, read-out: Reduction in TSST-1 Formation, Example 11: test tampon comprising 0.1% fatty acid ester; for inhibition at 0.5 %: FRI1169, read-out: Reduction in TSST-1 Formation, Example 11: test tampon comprising 0.5% fatty acid ester; for inhibition at 10 %: FRI1169, read-out: Reduction in TSST-1 Formation, Example 11: test tampon comprising 10% fatty acid ester. The class given is cell-based.

The mark [1] stands for this setting: Example 8: test tampon comprising 1% by weight of the ester, 24 hours at 37°C.
The mark [2] stands for this setting: Example 8: test tampon comprising 1% by weight of the ester, 24 hours at 37°C, ELISA.
Setting [3] is: FRI1169, read-out: REDUCTION IN TSST-1 FORMATION, Example 8: test tampon comprising 1% by weight of the ester, vs untreated control tampon.
Where [4] appears, read: Example 11: test tampon comprising 0.1% fatty acid ester.
Setting [5] is: Example 11: test tampon comprising 0.5% fatty acid ester.
Setting [6] is: Example 11: test tampon comprising 1.0% fatty acid ester.
[7] abbreviates: Example 11: test tampon comprising 10% fatty acid ester.
The mark [8] stands for this setting: FRI1169, read-out: Reduction in TSST-1 Formation, Example 11: test tampon comprising 1.0% fatty acid ester.

Regarding `CCCCCCCCCCCCCC(=O)OCC(O)CO` (stereo not drawn) [Tampon No. 3, Glyceryl monomyristate], the “FINAL CONCENTRATION OF S. AUREUS CELLS, log to the base 10” value under setting [1] is recorded as 8.70 /ml. In addition, the “Total Amount TSST-1 Produced” value under setting [2] was 0.58 »g. Besides, the inhibition at 1 % under setting [3] is 96.6%.

Consider `CCCCCCCCCCCCCCCC(=O)OCC(O)CO` (stereo not drawn) [Tampon No. 4, Glyceryl monopalmitate], for which the “FINAL CONCENTRATION OF S. AUREUS CELLS, log to the base 10” value under setting [1] was 9.15 /ml. Besides, the “Total Amount TSST-1 Produced” value under setting [2] is listed as 1.75 »g. For the same compound, under setting [3], the inhibition at 1 % came to 89.7%.

On to `CCCCCCCCCCCC(=O)OCC(O)CO` (stereo not drawn) [Tampon No. 2, Glyceryl monolaurate], for which, under setting [1], the “FINAL CONCENTRATION OF S. AUREUS CELLS, log to the base 10” value is 6.81 /ml. Also, the “Total Amount TSST-1 Produced” value under setting [2] was 0.14 »g. Also, the inhibition at 1 % under setting [3] amounted to 99.1%.

Regarding `CCCCCCCCCCCC(=O)OCC(C)O` (stereo not drawn) [Tampon 1, 2-Hydroxy-1-propyl laurate], the inhibition at 0.1 % was ~7%, the inhibition at 0.5 % worked out at 85% and the inhibition at 10 % was 99%. Under setting [4], the “Log of Final Concn. of S. aureus” value is given as 9.1 /ml and the “Total Amount TSST-1 Produced” value is recorded as 7.93 »g. Moreover, under setting [5], the “Log of Final Concn. of S. aureus” value is recorded as 7.64 /ml and the “Total Amount TSST-1 Produced” value was 1.25 »g. Also, under setting [6], the “Log of Final Concn. of S. aureus” value was 8.79 /ml and the “Total Amount TSST-1 Produced” value is on record as 0.09 »g. Also, under setting [7], the “Log of Final Concn. of S. aureus” value is reported as 8.37 /ml and the “Total Amount TSST-1 Produced” value was 0.05 »g. Besides, the inhibition at 1 % under setting [8] is ~99%.

Turning to `CCCCCCCCCCCCCCCCCC(=O)OCC(O)CO` (stereo not drawn) [Tampon No. 5, Glyceryl monostearate], the “FINAL CONCENTRATION OF S. AUREUS CELLS, log to the base 10” value under setting [1] is recorded as 8.78 /ml. In addition, the “Total Amount TSST-1 Produced” value under setting [2] is listed as 6.43 »g. In addition, the inhibition at 1 % under setting [3] turned out to be 60%.

As for `CCCCCCCCCCCC(=O)OCCOCCO` [Tampon 2, Diethylene glycol monolaurate], the inhibition at 0.1 % turned out to be 99%, the inhibition at 0.5 % stood at 99% and the inhibition at 10 % is 99%. For the same compound, under setting [4], the “Log of Final Concn. of S. aureus” value is 8.45 /ml and the “Total Amount TSST-1 Produced” value is 0.12 »g. Also, under setting [5], the “Log of Final Concn. of S. aureus” value is listed as 7.40 /ml and the “Total Amount TSST-1 Produced” value is reported as 0.01 »g. Under setting [6], the “Log of Final Concn. of S. aureus” value is 6.13 /ml and the “Total Amount TSST-1 Produced” value was 0.01 »g. In addition, under setting [7], the “Log of Final Concn. of S. aureus” value was 7.42 /ml and the “Total Amount TSST-1 Produced” value was 0.11 »g. Besides, the inhibition at 1 % under setting [8] is ~99%.

As for `CCCCCCCC/C=C\CCCCCCCC(=O)OCC(O)CO` (stereo not drawn) [Tampon No. 6, Glyceryl monooleate], the “FINAL CONCENTRATION OF S. AUREUS CELLS, log to the base 10” value under setting [1] was 8.83 /ml. In addition, under setting [2], the “Total Amount TSST-1 Produced” value is 1.01 »g. Also, the inhibition at 1 % under setting [3] is 94.1%.

Source of the values: EP0395099B1 (priority 1989, dated 1990).
